From the supplement of paper PMC11451515

Assays:
Conditions in all cases: 48 h
[1] = system: NOMO1; assay: cell viability relative to DMSO control; higher = less cytotoxic
Summary of the method: (§1)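 Leukemia cells (NOMO1 or SEM, 500 cells/well; P12-Ichikawa, 1000 cells/well) were seeded in 5 μl in 1536-well plates after at least four passages of adaptation to each medium. They received library compounds in DMSO by pin dosing, 11 threefold points from 47 μM to 0.79 nM. Luminescence with CellTiter-Glo One was read after 48 h at 37°C. Viability is stated per plate relative to DMSO wells, with cell-free wells as background.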

[2] = system: P12-Ichikawa; assay: as above
Summary of the method: as §1

[3] = system: SEM cells; assay: as above
Summary of the method: as §1

[4] = system: NOMO1; assay: AUC of viability dose-response curve (% viability x log10 dose units); higher = less sensitive
Summary of the method: (§2)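 Leukemia cells adapted to each medium were seeded at 500 or 1000 cells/well in 1536-well plates and dosed with library compounds in DMSO at 11 threefold doses from 47 μM to 0.79 nM for 48 h at 37°C. CellTiter-Glo One luminescence was normalised per plate to DMSO and cell-free wells, then fitted with a four-parameter log-logistic model over log10 doses. Area under the curve was taken from this fit by the trapezoidal rule, with curves above full viability scaled and curves failing quality control removed.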

[5] = system: P12-Ichikawa; assay: as above
Summary of the method: as §2

[6] = system: SEM cells; assay: as above
Summary of the method: as §2

Cc1[nH]c(/C=C2\C(=O)Nc3ccc([S+](=O)([O-])Cc4c(Cl)cccc4Cl)cc32)c(C)c1C(=O)N1CCC[C@@H]1CN1CCCC1
cell viability [%]
Conditions	[1]	[2]	[3]
HPLM + 10% dialyzed FBS, 0.000781 µM	100	105	100
HPLM + 10% dialyzed FBS, 0.00234 µM	112	108	103
HPLM + 10% dialyzed FBS, 0.00702 µM	97.5	99.7	102
HPLM + 10% dialyzed FBS, 0.0211 µM	83	101	103
HPLM + 10% dialyzed FBS, 0.0632 µM	92.8	98.8	112
HPLM + 10% dialyzed FBS, 0.19 µM	96.4	111	96.6
HPLM + 10% dialyzed FBS, 0.569 µM	98.2	108	94.8
HPLM + 10% dialyzed FBS, 1.71 µM	84.3	97.9	76.5
HPLM + 10% dialyzed FBS, 5.12 µM	81.2	91.5	6.42
HPLM + 10% dialyzed FBS, 15.4 µM	87.7	87.4	45.4
HPLM + 10% dialyzed FBS, 46.1 µM	59.9	78.3	9.75
RPMI 5 mM glucose + 10% FBS, 0.000781 µM	108	99.4	116
RPMI 5 mM glucose + 10% FBS, 0.00234 µM	101	103	114
RPMI 5 mM glucose + 10% FBS, 0.00702 µM	89.1	105	107
RPMI 5 mM glucose + 10% FBS, 0.0211 µM	93.2	99.7	116
RPMI 5 mM glucose + 10% FBS, 0.0632 µM	88	94.6	111
RPMI 5 mM glucose + 10% FBS, 0.19 µM	99.9	95.3	118
RPMI 5 mM glucose + 10% FBS, 0.569 µM	99.3	107	109
RPMI 5 mM glucose + 10% FBS, 1.71 µM	100	98.4	101
RPMI 5 mM glucose + 10% FBS, 5.12 µM	90.5	81.5	25.7
RPMI 5 mM glucose + 10% FBS, 15.4 µM	83.4	85.5	56.7
RPMI 5 mM glucose + 10% FBS, 46.1 µM	79.6	84.4	34
RPMI 5 mM glucose + 10% dialyzed FBS, 0.000781 µM	98.2	98	84.9
RPMI 5 mM glucose + 10% dialyzed FBS, 0.00234 µM	89.8	95.8	99.4
RPMI 5 mM glucose + 10% dialyzed FBS, 0.00702 µM	90.2	93.7	85.3
RPMI 5 mM glucose + 10% dialyzed FBS, 0.0211 µM	94.4	101	94.2
RPMI 5 mM glucose + 10% dialyzed FBS, 0.0632 µM	92.7	99	86.8
RPMI 5 mM glucose + 10% dialyzed FBS, 0.19 µM	102	102	93.2
RPMI 5 mM glucose + 10% dialyzed FBS, 0.569 µM	85.9	95	92.4
RPMI 5 mM glucose + 10% dialyzed FBS, 1.71 µM	91.2	91.6	72.5
RPMI 5 mM glucose + 10% dialyzed FBS, 5.12 µM	86.4	69.5	42
RPMI 5 mM glucose + 10% dialyzed FBS, 15.4 µM	84.8	78.1	42.3
RPMI 5 mM glucose + 10% dialyzed FBS, 46.1 µM	72.6	53	26.7

AUC of viability dose-response curve
Conditions	[4]	[5]	[6]
HPLM + 10% dialyzed FBS	435	455	370
RPMI 5 mM glucose + 10% FBS	438	456	394
RPMI 5 mM glucose + 10% dialyzed FBS	432	430	361

Cc1c(C(=O)Nc2cccc(C(F)(F)F)c2)cc(-c2ccccc2)n1CCCN1CCOCC1
cell viability [%]
Conditions	[1]	[2]	[3]
HPLM + 10% dialyzed FBS, 0.000781 µM	104	116	99.2
HPLM + 10% dialyzed FBS, 0.00234 µM	99.5	112	112
HPLM + 10% dialyzed FBS, 0.00702 µM	112	113	106
HPLM + 10% dialyzed FBS, 0.0211 µM	109	112	105
HPLM + 10% dialyzed FBS, 0.0632 µM	97.2	106	111
HPLM + 10% dialyzed FBS, 0.19 µM	113	106	96.3
HPLM + 10% dialyzed FBS, 0.569 µM	129	104	111
HPLM + 10% dialyzed FBS, 1.71 µM	116	99.2	99.5
HPLM + 10% dialyzed FBS, 5.12 µM	105	104	90.3
HPLM + 10% dialyzed FBS, 15.4 µM	95.9	91.7	93.6
HPLM + 10% dialyzed FBS, 46.1 µM	82.5	79.7	62.8
RPMI 5 mM glucose + 10% FBS, 0.000781 µM	107	111	89.6
RPMI 5 mM glucose + 10% FBS, 0.00234 µM	105	109	106
RPMI 5 mM glucose + 10% FBS, 0.00702 µM	111	115	119
RPMI 5 mM glucose + 10% FBS, 0.0211 µM	100	105	116
RPMI 5 mM glucose + 10% FBS, 0.0632 µM	102	113	110
RPMI 5 mM glucose + 10% FBS, 0.19 µM	101	119	101
RPMI 5 mM glucose + 10% FBS, 0.569 µM	96.5	108	122
RPMI 5 mM glucose + 10% FBS, 1.71 µM	92.4	108	101
RPMI 5 mM glucose + 10% FBS, 5.12 µM	91.7	97.1	115
RPMI 5 mM glucose + 10% FBS, 15.4 µM	96.4	88	93.6
RPMI 5 mM glucose + 10% FBS, 46.1 µM	95.2	70.3	50.9
RPMI 5 mM glucose + 10% dialyzed FBS, 0.000781 µM	115	105	104
RPMI 5 mM glucose + 10% dialyzed FBS, 0.00234 µM	107	117	111
RPMI 5 mM glucose + 10% dialyzed FBS, 0.00702 µM	111	114	121
RPMI 5 mM glucose + 10% dialyzed FBS, 0.0211 µM	109	114	113
RPMI 5 mM glucose + 10% dialyzed FBS, 0.0632 µM	108	114	121
RPMI 5 mM glucose + 10% dialyzed FBS, 0.19 µM	117	107	115
RPMI 5 mM glucose + 10% dialyzed FBS, 0.569 µM	111	106	109
RPMI 5 mM glucose + 10% dialyzed FBS, 1.71 µM	111	103	109
RPMI 5 mM glucose + 10% dialyzed FBS, 5.12 µM	109	103	95
RPMI 5 mM glucose + 10% dialyzed FBS, 15.4 µM	91.4	94	92.6
RPMI 5 mM glucose + 10% dialyzed FBS, 46.1 µM	73.3	74.1	45.8

AUC of viability dose-response curve
Conditions	[4]	[5]	[6]
HPLM + 10% dialyzed FBS	458	438	454
RPMI 5 mM glucose + 10% FBS	446	449	458
RPMI 5 mM glucose + 10% dialyzed FBS	460	454	446
